One assay addresses PD-1/PD-L1 (Homo sapiens (Human), UniProt Q9NZQ7). Kind of assay: PD-1/PD-L1 Binding Assay (Alphascreen). The conditions noted are these: numeric values. The gist of the method:
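PD-1/PD-L1 binding detected by anti-6×His acceptor and streptavidin donor beads after 120 min in the dark at 25 °C. Beforehand, the two proteins were incubated 15 min at 25 °C with inhibitor at 0.015–300 nM (1% DMSO). IC50 comes from a log concentration–response curve.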
For orientation: Bead proximity is the source of the signal in Alpha formats.
PD-1/PD-L1, sequence (Q9NZQ7 19-238): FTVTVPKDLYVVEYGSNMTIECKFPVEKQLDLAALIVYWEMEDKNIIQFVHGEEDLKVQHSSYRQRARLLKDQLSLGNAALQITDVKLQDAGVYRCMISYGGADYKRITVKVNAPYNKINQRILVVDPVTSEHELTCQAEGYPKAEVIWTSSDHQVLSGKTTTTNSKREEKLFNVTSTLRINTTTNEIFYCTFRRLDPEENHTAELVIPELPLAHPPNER
Turning to `Cc1c(Nc2nccc3cc(CN4CCOCC4)cnc23)cccc1-c1cccc(-c2nc3cc(CN4CCC[C@H]4C(=O)O)c(OC(F)F)cc3o2)c1C` [Example 176, ((6-(difluoromethoxy)-2-(2,2′-dimethyl-3′-((3-(morpholinomethyl)-1,7-naphthyridin-8-yl)amino)-[1,1′-biphenyl]-3-yl)benzo[d]oxazol-5-yl)methyl)-L-proline], the IC50 (as a rule, the concentration at which inhibition is half-maximal) was determined as 0.9 nM. Turning to `Cc1c(Nc2nccc3cc(CN4CCC4)cnc23)cccc1-c1cccc(-c2nc3cc(CN4CCC[C@H]4C(=O)O)c(OC(F)F)cc3o2)c1C` [Example 177, ((2-(3′-((3-(azetidin-1-ylmethyl)-1,7-naphthyridin-8-yl)amino)-2,2′-dimethyl-[1,1′-biphenyl]-3-yl)-6-(difluoromethoxy)benzo[d]oxazol-5-yl)methyl)proline], the IC50 amounted to 0.94 nM.

In turn, `Cc1c(Nc2nccc3cc(CN4CC(O)C4)cnc23)cccc1-c1cccc(-c2nc3cc(CN4CCC[C@H]4C(=O)O)c(OC(F)F)cc3o2)c1C` [Example 178, ((6-(difluoromethoxy)-2-(3′-((3-((3-hydroxyazetidin-1-yl)methyl)-1,7-naphthyridin-8-yl)amino)-2,2′-dimethyl-[1,1′-biphenyl]-3-yl)benzo[d]oxazol-5-yl)methyl)proline] came in with an IC50 of 3.9 nM. In the case of `Cc1c(-c2nc3c(o2)CCN(CC(=O)O)C3)cccc1-c1cccc(-c2nc3cc(CN4CCC[C@H]4C(=O)O)c(OC(F)F)cc3o2)c1C` [Example 184, ((2-(3′-(5-(carboxymethyl)-4,5,6,7-tetrahydrooxazolo[4,5-c]pyridin-2-yl)-2,2′-dimethyl-[1,1′-biphenyl]-3-yl)-6-(difluoromethoxy)benzo[d]oxazol-5-yl)methyl)-L-proline], the half-maximal inhibitory concentration (IC50) turned out to be 2.3 nM. `Cc1c(-c2nc3c(o2)CNC3)cccc1-c1cccc(-c2nc3cc(CN4CCC[C@H]4C(=O)O)c(OC(F)F)cc3o2)c1C` [Example 202, ((6-(difluoromethoxy)-2-(3′-(5,6-dihydro-4H-pyrrolo[3,4-d]oxazol-2-yl)-2,2′-dimethyl-[1,1′-biphenyl]-3-yl)benzo[d]oxazol-5-yl)methyl)proline]: the IC50 worked out at 0.37 nM. Same read-out and setting: the figure for `Cc1c(-c2nc3c(o2)CCN(CCO)C3)cccc1-c1cccc(-c2nc3cc(CN4CCC[C@H]4C(=O)O)c(OC(F)F)cc3o2)c1C` [Example 206, ((6-(difluoromethoxy)-2-(3′-(5-(2-hydroxyethyl)-4,5,6,7-tetrahydrooxazolo[4,5-c]pyridin-2-yl)-2,2′-dimethyl-[1,1′-biphenyl]-3-yl)benzo[d]oxazol-5-yl)methyl)-L-proline] is 1.4 nM; for `Cc1c(COc2cc(OCc3cncc(OC(F)F)c3)c(CN3CC[C@@H](O)C3)cc2Cl)cccc1-c1cccc(-c2nc3cc(CN4CCC[C@H]4C(=O)O)c(OC(F)F)cc3o2)c1C` [Example 208, ((2-(3′-((2-chloro-5-((5-(difluoromethoxy)pyridin-3-yl)methoxy)-4-(((R)-3-hydroxypyrrolidin-1-yl)methyl)phenoxy)methyl)-2,2′-dimethyl-[1,1′-biphenyl]-3-yl)-6-(difluoromethoxy)benzo[d]oxazol-5-yl)methyl)-L-proline] it is 114 nM.

The assay is the same for the next values; noted with them: range symbols.
In turn, `Cc1c(Nc2nccc3cc(CNCC4CCC(=O)N4)cnc23)cccc1-c1cccc(-c2nc3cc(CN4CCC[C@H]4C(=O)O)c(OC(F)F)cc3o2)c1C` (stereo partly shown) [Example 179, ((6-(difluoromethoxy)-2-(2,2′-dimethyl-3′-((3-((((5-oxopyrrolidin-2-yl)methyl)amino)methyl)-1,7-naphthyridin-8-yl)amino)-[1,1′-biphenyl]-3-yl)benzo[d]oxazol-5-yl)methyl)proline] had an IC50 of 0.1 to 5 nM. Same read-out and setting: the figure for `Cc1c(Nc2nccc3cc(CN4CCC(O)C4)cnc23)cccc1-c1cccc(-c2nc3cc(CN4CC[C@H](C(=O)O)C4)c(OC(F)F)cc3o2)c1C` (stereo partly drawn) [Example 180, (3S)-1-((6-(difluoromethoxy)-2-(3′-((3-((3-hydroxypyrrolidin-1-yl)methyl)-1,7-naphthyridin-8-yl)amino)-2,2′-dimethyl-[1,1′-biphenyl]-3-yl)benzo[d]oxazol-5-yl)methyl)pyrrolidine-3-carboxylic acid] is 0.1 to 5 nM.

For `Cc1c(Nc2nccc3cc(CN4CCC(O)C4)cnc23)cccc1-c1cccc(-c2nc3cc(CN4CC[C@@H](C(=O)O)C4)c(OC(F)F)cc3o2)c1C` (stereo partly drawn) [Example 181, (3R)-1-((6-(difluoromethoxy)-2-(3′-((3-((3-hydroxypyrrolidin-1-yl)methyl)-1,7-naphthyridin-8-yl)amino)-2,2′-dimethyl-[1,1′-biphenyl]-3-yl)benzo[d]oxazol-5-yl)methyl)pyrrolidine-3-carboxylic acid], the IC50 fell in the range of 0.1 to 5 nM. For the compound `Cc1c(Nc2nccc3cc(CN4CCC(O)C4)cnc23)cccc1-c1cccc(-c2nc3cc(CN4CCC[C@@H]4C(=O)O)c(OC(F)F)cc3o2)c1C` (stereo partly drawn) [Example 182, ((6-(difluoromethoxy)-2-(3′-((3-((3-hydroxypyrrolidin-1-yl)methyl)-1,7-naphthyridin-8-yl)amino)-2,2′-dimethyl-[1,1′-biphenyl]-3-yl)benzo[d]oxazol-5-yl)methyl)-D-proline], the IC50 fell in the range of 0.1 to 5 nM.

`Cc1c(Nc2cc(CN3CCCC3)ccn2)cccc1-c1cccc(-c2nc3cc(OC(F)F)c(CN4CCC[C@H]4C(=O)O)cc3o2)c1C` [Example 183, ((5-(difluoromethoxy)-2-(2,2′-dimethyl-3′-((4-(pyrrolidin-1-ylmethyl)pyridin-2-yl)amino)-[1,1′-biphenyl]-3-yl)benzo[d]oxazol-6-yl)methyl)-L-proline]: the IC50 lay within 5 to 50 nM.

As for `Cc1c(-c2nc3c(o2)CCN(CCS(C)(=O)=O)C3)cccc1-c1cccc(-c2nc3cc(CN4CCC[C@H]4C(=O)O)c(OC(F)F)cc3o2)c1C` [Example 185, ((6-(difluoromethoxy)-2-(2,2′-dimethyl-3′-(5-(2-(methylsulfonyl)ethyl)-4,5,6,7-tetrahydrooxazolo[4,5-c]pyridin-2-yl)-[1,1′-biphenyl]-3-yl)benzo[d]oxazol-5-yl)methyl)-L-proline], the half-inhibitory concentration (IC50) was in the range of 0.1 to 5 nM.

`Cc1c(-c2nc3c(o2)CCN(C(C)C(=O)O)C3)cccc1-c1cccc(-c2nc3cc(CN4CCC[C@H]4C(=O)O)c(OC(F)F)cc3o2)c1C` (stereo partly drawn) [Example 186, ((2-(3′-(5-(1-carboxyethyl)-4,5,6,7-tetrahydrooxazolo[4,5-c]pyridin-2-yl)-2,2′-dimethyl-[1,1′-biphenyl]-3-yl)-6-(difluoromethoxy)benzo[d]oxazol-5-yl)methyl)-L-proline] gave an IC50 of 0.1 to 5 nM. Turning to `Cc1c(-c2nc3c(o2)CCN(CCC(=O)O)C3)cccc1-c1cccc(-c2nc3cc(CN4CCC[C@H]4C(=O)O)c(OC(F)F)cc3o2)c1C` [Example 187, ((2-(3′-(5-(2-carboxyethyl)-4,5,6,7-tetrahydrooxazolo[4,5-c]pyridin-2-yl)-2,2′-dimethyl-[1,1′-biphenyl]-3-yl)-6-(difluoromethoxy)benzo[d]oxazol-5-yl)methyl)-L-proline], the IC50 lay in the range of 0.1 to 5 nM. Still for that read-out and setting: to `Cc1c(-c2nc3c(o2)CN(C)CC3)cccc1-c1cccc(-c2nc3cc(CN4CCC[C@H]4C(=O)O)c(OC(F)F)cc3o2)c1C` [Example 188, ((6-(difluoromethoxy)-2-(2,2′-dimethyl-3′-(5-methyl-4,5,6,7-tetrahydrooxazolo[5,4-c]pyridin-2-yl)-[1,1′-biphenyl]-3-yl)benzo[d]oxazol-5-yl)methyl)-L-proline] belongs 0.1 to 5 nM.

Take `Cc1c(-c2nc3c(o2)CN(CCO)CC3)cccc1-c1cccc(-c2nc3cc(CN4CCC[C@H]4C(=O)O)c(OC(F)F)cc3o2)c1C` [Example 189, ((6-(difluoromethoxy)-2-(3′-(5-(2-hydroxyethyl)-4,5,6,7-tetrahydrooxazolo[5,4-c]pyridin-2-yl)-2,2′-dimethyl-[1,1′-biphenyl]-3-yl)benzo[d]oxazol-5-yl)methyl)-L-proline]: the IC50 was 0.1 to 5 nM. On to `Cc1c(-c2nc3c(o2)CCN(CC2CCC(=O)N2)C3)cccc1-c1cccc(-c2nc3cc(CN4CCC[C@H]4C(=O)O)c(OC(F)F)cc3o2)c1C` (stereo partly shown) [Example 193, ((6-(difluoromethoxy)-2-(2,2′-dimethyl-3′-(5-((5-oxopyrrolidin-2-yl)methyl)-4,5,6,7-tetrahydrooxazolo[4,5-c]pyridin-2-yl)-[1,1′-biphenyl]-3-yl)benzo[d]oxazol-5-yl)methyl)proline], for which the 50% inhibitory concentration (IC50) is 5 to 50 nM. The compound `Cc1c(-c2nc3c(o2)CCN(Cc2cccnc2)C3)cccc1-c1cccc(-c2nc3cc(CN4CCC[C@H]4C(=O)O)c(OC(F)F)cc3o2)c1C` [Example 194, ((6-(difluoromethoxy)-2-(2,2′-dimethyl-3′-(5-(pyridin-3-ylmethyl)-4,5,6,7-tetrahydrooxazolo[4,5-c]pyridin-2-yl)-[1,1′-biphenyl]-3-yl)benzo[d]oxazol-5-yl)methyl)proline] showed an IC50 of 5 to 50 nM. In turn, `Cc1c(-c2nc3c(o2)CCN(CC(N)=O)C3)cccc1-c1cccc(-c2nc3cc(CN4CCC[C@H]4C(=O)O)c(OC(F)F)cc3o2)c1C` [Example 196, ((2-(3′-(5-(2-amino-2-oxoethyl)-4,5,6,7-tetrahydrooxazolo[4,5-c]pyridin-2-yl)-2,2′-dimethyl-[1,1′-biphenyl]-3-yl)-6-(difluoromethoxy)benzo[d]oxazol-5-yl)methyl)proline] returned an IC50 of 5 to 50 nM. The same measure, in the same setting: the figure for `Cc1c(-c2nc3c(o2)CCN(CCCO)C3)cccc1-c1cccc(-c2nc3cc(CN4CCC[C@H]4C(=O)O)c(OC(F)F)cc3o2)c1C` [Example 199, ((6-(difluoromethoxy)-2-(3′-(5-(3-hydroxypropyl)-4,5,6,7-tetrahydrooxazolo[4,5-c]pyridin-2-yl)-2,2′-dimethyl-[1,1′-biphenyl]-3-yl)benzo[d]oxazol-5-yl)methyl)proline] is 5 to 50 nM; for `Cc1c(-c2nc3c(o2)CCN(CCCF)C3)cccc1-c1cccc(-c2nc3cc(CN4CCC[C@H]4C(=O)O)c(OC(F)F)cc3o2)c1C` [Example 200, ((6-(difluoromethoxy)-2-(3′-(5-(3-fluoropropyl)-4,5,6,7-tetrahydrooxazolo[4,5-c]pyridin-2-yl)-2,2′-dimethyl-[1,1′-biphenyl]-3-yl)benzo[d]oxazol-5-yl)methyl)proline] it is 5 to 50 nM.

The record behind these values is US12187713B2, “Immunomodulators, compositions and methods thereof” (Betta Pharmaceuticals Co., Ltd, priority 2019, dated 2025).
